These are literature values, as cited in patent US8735374B2, “Oral mucoadhesive dosage form” (Intelgenx Corp., priority 2009, dated 2014).

The conditions of this data set: oral administration; first pass hepatic metabolism, high lipid solubility.

Where “and” joins values, the source holds several entries; their conditions need not be identical. Equal values may be shown once.

Regarding `CCCCCc1cc(O)c2c(c1)OC(C)(C)[C@@H]1CCC(C)=C[C@@H]21` [THC, Δ^9-tetrahydrocannabinol], the “portion of an administered dose that reaches systemic circulation” value is 10 to 20% and 10-20%.
